Experimental data taken from patent US7071197B2, “N,N-disubstituted diazocycloalkanes” (Recordati S.A., priority 2002, dated 2006).

Target: T1, human α1b-adrenoceptor (Homo sapiens, UniProt P35368)
T1 construct: expressed in transfected cells
T1 sequence (P35368 1-520): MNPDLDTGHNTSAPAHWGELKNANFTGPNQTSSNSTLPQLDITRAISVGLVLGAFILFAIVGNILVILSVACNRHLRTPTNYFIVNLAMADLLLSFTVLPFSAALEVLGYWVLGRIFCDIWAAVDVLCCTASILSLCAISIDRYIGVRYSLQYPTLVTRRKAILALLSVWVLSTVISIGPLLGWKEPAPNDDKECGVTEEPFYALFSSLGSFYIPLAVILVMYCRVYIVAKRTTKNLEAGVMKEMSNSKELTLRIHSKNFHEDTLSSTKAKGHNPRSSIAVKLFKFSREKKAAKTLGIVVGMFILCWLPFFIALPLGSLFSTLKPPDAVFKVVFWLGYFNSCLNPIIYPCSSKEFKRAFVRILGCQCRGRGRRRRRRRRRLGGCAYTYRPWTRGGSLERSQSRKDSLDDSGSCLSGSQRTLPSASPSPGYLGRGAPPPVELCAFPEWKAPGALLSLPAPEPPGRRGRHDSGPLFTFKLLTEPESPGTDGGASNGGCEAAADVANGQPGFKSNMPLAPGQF
Test: [3H]prazosin binding to cloned human α1-adrenoceptor subtypes (α1b)
Conditions: for Ki: [3H]prazosin, CHO cell membranes, read-out: Binding affinity (Ki, nM) α1b; for α1b/5-HT1A: selectivity: ratio of Ki at α1b and Ki at 5-HT1A
Method: Binding to cloned human α1-adrenoceptor subtypes was performed in membranes from CHO cells (chinese hamster ovary cells) transfected by electroporation with DNA expressing the gene encoding each α1-adrenoceptor subtype. Cloning and stable expression of the human α1-adrenoceptor gene was performed as previously described (Testa et al. Pharmacol. Comm., 6: 79–86,1995).
CHO cells were grown in suspension in Iscove's modified Dulbecco's medium, supplemented with 10% fetal calf serum and gentamicin (50 μg/ml), at 37° C. in 7% CO2 in an humidified incubator. Cells were collected by centrifugation, lised in ice-cold Tris 5 mM and EDTA 5 mM buffer (pH 7.4) and gently homogenised. Homogenates were centrifuged at 40000×g×20 min and pellets were resuspended in a small volume of ice-cold Tris 5 mM and EDTA 5 mM buffer (pH 7.4) and immediately frozen and stored at −80° C. until use.
CHO cell membranes were resuspended and incubated in 50 mM Tris, pH 7.4, with 0.2 nM [^3H]prazosin, in a final volume of 1.02 ml for 30 min at 25° C., in absence or presence of competing drugs. Non-specific binding was determined in the presence of 10 μM phentolamine. The incubation was stopped by rapid filtration through 0.2% polyethyleneimine pretreated Schleicher & Schuell GF52 filters using a Tomtec (PerkinElmer) cell harvester. The filters were washed with 3×1 ml of ice-cold Tris buffer, dried and the radioactivity was measured in a Betaplate (Wallac) liquid scintillation counter.
The inhibition of specific binding by the compounds was analysed to estimate the IC50 value by the non-linear curve-fitting program Allfit (De Lean et al. Am. J. Physiol. 235, E97-E102, 1978). The IC50 value is converted to an affinity constant (Ki) by the equation of Cheng & Prusoff (Biochem. Pharmacol. 22: 3099–3108, 1973).

| Compound | Ki | α1b/5-HT1A |
| --- | --- | --- |
| COc1ccccc1N1CCN(CC[C@@H](c2ccccc2F)[C@H](O)C2CCCCC2)CC1 (racemic) [Ex. 1, 1-[(SR-RS)-4-cyclohexyl-4-hydroxy-3-(2-fluorophenyl)-butyl]-4-(2-methoxyphenyl)-piperazine] | 5.9 nM | 45 |
| COc1ccccc1N1CCN(CC[C@H](c2ccccc2)[C@@H](O)C2CCCCC2)CC1 (racemic) [Ex. 5, 1-[(RS,SR)-4-Cyclohexyl-4-hydroxy-3-phenyl-butyl]-4-(2-methoxyphenyl)-piperazine, reference compound] | 12 nM | 18 |
| COc1ccccc1N1CCN(CC[C@H](c2ccccc2F)[C@@H](O)C2CCCCC2)CC1 [Ex. 1Y, 1-[(3R,4S)-4-cyclohexyl-4-hydroxy-3-(2-fluorophenyl)-butyl]-4-(2-methoxyphenyl)-piperazine] | 11 nM | 30 |
| COc1ccccc1N1CCN(CC[C@H](c2ccccc2F)[C@H](O)C2CCCCC2)CC1 [Ex. 2X, 1-[(3R,4R)-4-cyclohexyl-4-hydroxy-3-(2-fluorophenyl)-butyl]-4-(2-methoxyphenyl)-piperazine] | 11 nM | 46 |
